# According to article PMC10657973 (Journal of Pharmaceutical Analysis, 2023):
# “Also recorded” adds a separate entry of the source.
# T1: OAT1 (Homo sapiens, UniProt Q4U2R8)
# T1 sequence (Q4U2R8 1-563): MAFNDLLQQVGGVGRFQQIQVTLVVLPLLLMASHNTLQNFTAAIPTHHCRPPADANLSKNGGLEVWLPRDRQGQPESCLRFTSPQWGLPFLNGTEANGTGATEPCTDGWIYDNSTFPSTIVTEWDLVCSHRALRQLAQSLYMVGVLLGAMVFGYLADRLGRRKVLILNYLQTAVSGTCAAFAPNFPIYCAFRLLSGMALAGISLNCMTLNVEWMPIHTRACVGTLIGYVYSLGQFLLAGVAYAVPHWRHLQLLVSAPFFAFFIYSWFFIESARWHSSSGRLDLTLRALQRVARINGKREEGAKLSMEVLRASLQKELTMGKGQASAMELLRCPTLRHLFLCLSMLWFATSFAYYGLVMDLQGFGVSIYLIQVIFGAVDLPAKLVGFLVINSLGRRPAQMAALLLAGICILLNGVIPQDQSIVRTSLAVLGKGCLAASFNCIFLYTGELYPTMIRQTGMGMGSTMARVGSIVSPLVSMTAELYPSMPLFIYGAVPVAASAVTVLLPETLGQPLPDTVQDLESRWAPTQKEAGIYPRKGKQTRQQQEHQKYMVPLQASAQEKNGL
# T2: OAT3 (Homo sapiens, UniProt Q8TCC7)
# T2 sequence (Q8TCC7 1-542): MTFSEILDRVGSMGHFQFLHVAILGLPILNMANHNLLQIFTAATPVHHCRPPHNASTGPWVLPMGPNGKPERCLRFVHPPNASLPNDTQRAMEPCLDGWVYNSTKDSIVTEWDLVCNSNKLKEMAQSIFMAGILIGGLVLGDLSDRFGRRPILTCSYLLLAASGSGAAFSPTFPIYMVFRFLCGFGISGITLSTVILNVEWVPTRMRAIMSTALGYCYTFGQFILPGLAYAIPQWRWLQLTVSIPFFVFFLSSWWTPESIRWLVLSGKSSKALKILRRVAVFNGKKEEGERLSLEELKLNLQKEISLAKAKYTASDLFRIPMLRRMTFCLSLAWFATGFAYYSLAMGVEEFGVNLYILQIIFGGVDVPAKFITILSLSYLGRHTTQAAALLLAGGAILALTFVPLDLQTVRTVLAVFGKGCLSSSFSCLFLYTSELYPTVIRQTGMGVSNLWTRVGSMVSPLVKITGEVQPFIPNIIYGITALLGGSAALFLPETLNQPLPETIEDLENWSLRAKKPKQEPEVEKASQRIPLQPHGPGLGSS
# Experiments:
# [1] = test system: OAT1/3-MRP4 double-transfected MDCK cells; test: Transcellular transport in OAT1/3-MRP4 double-transfected MDCK cells; assay type: cell-based
# rMRP4 [2] = assay type: in vivo, rats
# MRP2 = settings: read-out: affinity (Km) for MRP2; cited from earlier work
# MRP4 [3] = settings: read-out: affinity (Km) for MRP4; cited from earlier work
# [4] = test system: OAT1/3 and MRP4 double-transfected MDCK cells
# [5] = assay type: in vivo, rats; settings: rats
# rMRP4 [6] = assay type: in vivo, rats; settings: rat, in vivo
# rOATs = rOATs inhibition experiment
# OAT1 [7] = molecular target: T1, OAT1; test: Transport kinetics of UTs in HEK293T-OAT1 cells; assay type: cell-based; settings: HEK293T-OAT1/3 cells, 100 μM
# OAT1 [8] = molecular target: T1, OAT1; test: Uptake of UTs in HEK293T-OAT1 cells; assay type: cell-based; settings: 100 μM, 30 min
# OAT3 = molecular target: T2, OAT3; test: Uptake of UTs in HEK293T-OAT3 cells; assay type: cell-based; settings: 100 μM, 30 min
# serum protein = test: Protein-binding ratio of UTs in rat serum; assay type: in vitro ADME, rats; settings: ultrafiltration at 37 °C
# MRP4 [9] = test: Intracellular accumulation of UTs in MRP4-overexpressing cells; assay type: cell-based, human; settings: 100 μM, 30 min
# rOAT1/3 = test: rOAT1/3−/− rat experiment; assay type: in vivo, rats; settings: rat, in vivo
# OAT4 = test: Specificity: uptake in OAT4-overexpressing cells; assay type: cell-based
# [10] = Correlation between biomarkers and cefmetazole pharmacokinetics in rats; assay type: in vivo
# [11] = cited from earlier work
# [12] = substrate: CCCc1oc(CCC(=O)O)c(C(=O)O)c1C; test: Transport kinetics of UTs in HEK293T-OAT1 cells; assay type: cell-based, human; settings: other: HEK293T-OAT1, Michaelis-Menten
# [13] = substrate: O=C(O)c1cc(=O)c2ccccc2[nH]1; test: Transport kinetics of UTs in HEK293T-OAT1 cells; assay type: cell-based, human; settings: other: HEK293T-OAT1, Michaelis-Menten
# [14] = substrate: CCCc1oc(CCC(=O)O)c(C(=O)O)c1C; test: Transport kinetics of UTs in HEK293T-OAT3 cells; assay type: cell-based, human; settings: other: HEK293T-OAT3, Michaelis-Menten
# [15] = substrate: O=C(O)c1cc(=O)c2ccccc2[nH]1; test: Transport kinetics of UTs in HEK293T-OAT3 cells; assay type: cell-based, human; settings: other: HEK293T-OAT3, Michaelis-Menten
# [16] = PROB 30, 60, 120 mg/kg oral, 7 days
molecule,measurement,setting,value
"CN(C)C(=O)CCSC(SCCC(=O)O)c1cccc(/C=C/c2ccc3ccc(Cl)cc3n2)c1 (stereo not drawn) [MK-571, reference compound]",effect on B to A transmembrane transport of CMPF,[1],substantially inhibited
same,effect on B−A transport of kynurenic acid,[1],significantly reduced
same,serum creatinine and urea nitrogen levels,"rMRP4 [2]; rats, 20 mg/kg oral, 7 days",significantly increased
same,pathological changes in the kidneys,"rMRP4 [2]; rats, different doses, H&E staining",No significant pathological changes
Nc1ccc(C(=O)NCC(=O)O)cc1 [aminohippuric acid],Km,MRP2,2000 µM
same,Km,MRP4 [3],160 µM
"CCCc1oc(CCC(=O)O)c(C(=O)O)c1C [CMPF, 3-carboxy-4-methyl-5-propyl-2-furanpropanoic acid]",uptake at 4 °C in OAT1/3 and MRP4 double-transfected cells,[4]; 4 °C,no significant difference
same,uptake at 37 °C in OAT1-MRP4 cells vs double control cells,[4]; 37 °C,significantly increased
same,uptake at 37 °C in OAT3-MRP4 cells vs double control cells,[4]; 37 °C,significantly increased
same,renal excretion with MK-571 vs control,[5]; MK-571 20 mg/kg,did not affect
same,renal excretion with PROB vs control,[5]; PROB 60 mg/kg,did not affect
same,renal clearance rate in rMRP4−/− rats vs WT,rMRP4 [6],did not change significantly
same,renal tissue concentration in rMRP4−/− rats vs WT,rMRP4 [6],significantly elevated
same,serum levels in rMRP4−/− rats vs WT,rMRP4 [6],did not change significantly
same,cumulative urinary excretion in rats treated with PROB vs control,rOATs; 12 h urine,no significant effects
same,renal uptake ratios in rats treated with PROB vs control,rOATs; [16],decreased
same,serum levels in rats treated with PROB vs control,rOATs; [16],increased
same,linear uptake time,OAT1 [7],0 to 10 min
same,uptake at 4 °C in OAT1-overexpressing cells vs control,OAT1 [8]; 4 °C,not significantly different
same,uptake of HSA-bound UT in OAT1-overexpressing cells vs control cells,"OAT1 [8]; 37 °C, with HSA",dramatically increased
same,uptake of free UT in OAT1-overexpressing cells vs control cells,"OAT1 [8]; 37 °C, without HSA",dramatically increased; also recorded: markedly higher
same,uptake at 4 °C in OAT3-overexpressing cells vs control,OAT3; 4 °C,not significantly different
same,uptake of HSA-bound UT in OAT3-overexpressing cells vs control cells,"OAT3; 37 °C, with HSA",dramatically increased
same,uptake of free UT in OAT3-overexpressing cells vs control cells,"OAT3; 37 °C, without HSA",dramatically increased; also recorded: markedly higher
same,"Protein-binding ratio, Normal rats in vivo (%) (n = 6)",serum protein,> 90%
same,uptake at 4 °C in MRP4-overexpressing cells vs control,MRP4 [9]; 4 °C,not significantly different
same,intracellular accumulation in MRP4-overexpressing cells vs control cells,"MRP4 [9]; 37 °C, 4 mM ATP",significantly decreased
same,renal clearance rate in rOAT1/3−/− rats vs WT,rOAT1/3,significantly decreased
same,renal tissue uptake ratio in rOAT1/3−/− rats vs WT,rOAT1/3,significantly decreased
same,serum levels in rOAT1/3−/− rats vs WT,rOAT1/3,significantly increased
same,transport mediated by OAT4 / uptake in OAT4-overexpressing cells vs control,OAT4,significantly higher
same,levels in renal tissues in rats treated with MK-571 vs control,"rMRP4 [2]; MK-571 5, 10, 20 mg/kg oral, 7 days",significantly increased
same,cumulative urinary excretion in rats treated with MK-571 vs control,rMRP4 [2]; MK-571 (CMPF effect at 20 mg/kg),significantly decreased
"CO[C@@]1(NC(=O)CSCC#N)C(=O)N2C(C(=O)O)=C(CSc3nnnn3C)CS[C@@H]21 [cefmetazole, reference compound]",plasma concentrations in rats treated with PROB,"[10]; PROB 60 and 120 mg/kg 7 days, cefmetazole 100 mg/kg i.v.",increased
same,cmax in WT rats given 100 mg/kg vs KO rats given 60 mg/kg,"[10]; i.p., 7 consecutive days",close to
same,renal tubular secretion,[11],about 40%
OAT1 (Homo sapiens) (protein) MAFNDLLQQVGGVGRFQQIQVTLVVLPLLLMASHNTLQNFTAAIPTHHCRPPADANLSKNGGLEVWLPRDRQGQPESCLRFTSPQWGLPFLNGTEANGTGATEPCTDGWIYDNSTFPSTIVTEWDLVCSHRALRQLAQSLYMVGVLLGAMVFGYLADRLGRRKVLILNYLQTAVSGTCAAFAPNFPIYCAFRLLSGMALAGISLNCMTLNVEWMPIHTRACVGTLIGYVYSLGQFLLAGVAYAVPHWRHLQLLVSAPFFAFFIYSWFFIESARWHSSSGRLDLTLRALQRVARINGKREEGAKLSMEVLRASLQKELTMGKGQASAMELLRCPTLRHLFLCLSMLWFATSFAYYGLVMDLQGFGVSIYLIQVIFGAVDLPAKLVGFLVINSLGRRPAQMAALLLAGICILLNGVIPQDQSIVRTSLAVLGKGCLAASFNCIFLYTGELYPTMIRQTGMGMGSTMARVGSIVSPLVSMTAELYPSMPLFIYGAVPVAASAVTVLLPETLGQPLPDTVQDLESRWAPTQKEAGIYPRKGKQTRQQQEHQKYMVPLQASAQEKNGL,Km,[12],"1,483 μM"
same,Vmax,[12],323 pmol/mg protein/min
same,Km,[13],496.7 µM
OAT3 (Homo sapiens) (protein) MTFSEILDRVGSMGHFQFLHVAILGLPILNMANHNLLQIFTAATPVHHCRPPHNASTGPWVLPMGPNGKPERCLRFVHPPNASLPNDTQRAMEPCLDGWVYNSTKDSIVTEWDLVCNSNKLKEMAQSIFMAGILIGGLVLGDLSDRFGRRPILTCSYLLLAASGSGAAFSPTFPIYMVFRFLCGFGISGITLSTVILNVEWVPTRMRAIMSTALGYCYTFGQFILPGLAYAIPQWRWLQLTVSIPFFVFFLSSWWTPESIRWLVLSGKSSKALKILRRVAVFNGKKEEGERLSLEELKLNLQKEISLAKAKYTASDLFRIPMLRRMTFCLSLAWFATGFAYYSLAMGVEEFGVNLYILQIIFGGVDVPAKFITILSLSYLGRHTTQAAALLLAGGAILALTFVPLDLQTVRTVLAVFGKGCLSSSFSCLFLYTSELYPTVIRQTGMGVSNLWTRVGSMVSPLVKITGEVQPFIPNIIYGITALLGGSAALFLPETLNQPLPETIEDLENWSLRAKKPKQEPEVEKASQRIPLQPHGPGLGSS,Km,[14],447.1 µM
same,Vmax,[14],133.2 pmol/mg protein/min
same,Km,[15],382.2 µM
